Read-outs that look alike come from different tables or passages of the source.
Experiments:
[1] = target: GSK3α (GST-full length GSK3α) (Homo sapiens (Human), UniProt P49840); experiment: GSK3α TR-FRET kinase assay; format: biochemical
Summary of the method: (§1)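 Compound preincubated 30 min, then 1 nM GST-full-length GSK3α or GSK3b run 100 min at ambient temperature with 200 nM biotinylated, S645-prephosphorylated glycogen synthase 631-650 peptide in Tris pH 7.5, MgCl2, DTT, BSA, 1% DMSO. ATP 4 μM (α) or 2 μM (β), or 1 mM. EDTA-quenched; Tb-anti-pSer641/streptavidin-d2 TR-FRET 665/615 ratio gave IC50.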

[2] = target: GSK3b (GST-full length GSK3b) (Homo sapiens (Human), UniProt P49841); experiment: GSK3b TR-FRET kinase assay; format: biochemical
Summary of the method: as §1

[3] = 1 nM GSK3α, 4 μM ATP, 30 minute preincubation, Table 16, read-out: GSK3-A TR-FRET BIOCHEMICAL (TR-FRET)
[4] = 1 nM GSK3b, 2 μM ATP, 30 minute preincubation, Table 16, read-out: GSK3-B TR-FRET BIOCHEMICAL (TR-FRET)
[5] = 1 nM GSK3α, 4 μM ATP, 30 minute preincubation, geometric mean, read-out: GSK3-A TR-FRET BIOCHEMICAL (TR-FRET), GMean, IC50
[6] = 1 nM GSK3b, 2 μM ATP, 30 minute preincubation, geometric mean, read-out: GSK3-B TR-FRET BIOCHEMICAL (TR-FRET), GMean, IC50
[7] = 1 nM GSK3α, 4 μM ATP, 30 minute preincubation, Table 16, read-out: GSK3-A TR-FRET BIOCHEMICAL (TR-FRET), IC50
[8] = 1 nM GSK3b, 2 μM ATP, 30 minute preincubation, Table 16, read-out: GSK3-B TR-FRET BIOCHEMICAL (TR-FRET), IC50
[9] = read-out: GSK3-A (TR-FRET 1 mM ATP), GMean, IC50, 1 mM ATP, geometric mean
[10] = read-out: GSK3-B (TR-FRET 1 mM ATP), GMean, IC50, 1 mM ATP, geometric mean
[11] = 1 nM GSK3α, 4 μM ATP, 30 minute preincubation, read-out: GSK3-A TR-FRET BIOCHEMICAL (TR-FRET), IC50
[12] = 1 nM GSK3b, 2 μM ATP, 30 minute preincubation, read-out: GSK3-B TR-FRET BIOCHEMICAL (TR-FRET), IC50
[13] = GSK3-A (TR-FRET 1 mM ATP), GMean, IC50, 1 mM ATP, geometric mean
[14] = GSK3-B (TR-FRET 1 mM ATP), GMean, IC50, 1 mM ATP, geometric mean

Sequence of GSK3b (GST-full length GSK3b) (P49841 whole entry): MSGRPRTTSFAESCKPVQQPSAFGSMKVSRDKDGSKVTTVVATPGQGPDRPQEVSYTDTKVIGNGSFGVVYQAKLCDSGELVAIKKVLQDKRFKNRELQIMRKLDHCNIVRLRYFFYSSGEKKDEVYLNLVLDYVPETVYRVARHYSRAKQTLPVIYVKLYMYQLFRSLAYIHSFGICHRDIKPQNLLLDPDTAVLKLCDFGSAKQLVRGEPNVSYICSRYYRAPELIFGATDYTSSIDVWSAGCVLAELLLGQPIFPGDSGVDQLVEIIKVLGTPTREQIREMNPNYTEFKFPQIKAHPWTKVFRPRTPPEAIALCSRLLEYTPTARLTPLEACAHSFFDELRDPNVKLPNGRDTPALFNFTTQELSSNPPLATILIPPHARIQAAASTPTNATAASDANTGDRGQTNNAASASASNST
Sequence of GSK3α (GST-full length GSK3α) (P49840 whole entry): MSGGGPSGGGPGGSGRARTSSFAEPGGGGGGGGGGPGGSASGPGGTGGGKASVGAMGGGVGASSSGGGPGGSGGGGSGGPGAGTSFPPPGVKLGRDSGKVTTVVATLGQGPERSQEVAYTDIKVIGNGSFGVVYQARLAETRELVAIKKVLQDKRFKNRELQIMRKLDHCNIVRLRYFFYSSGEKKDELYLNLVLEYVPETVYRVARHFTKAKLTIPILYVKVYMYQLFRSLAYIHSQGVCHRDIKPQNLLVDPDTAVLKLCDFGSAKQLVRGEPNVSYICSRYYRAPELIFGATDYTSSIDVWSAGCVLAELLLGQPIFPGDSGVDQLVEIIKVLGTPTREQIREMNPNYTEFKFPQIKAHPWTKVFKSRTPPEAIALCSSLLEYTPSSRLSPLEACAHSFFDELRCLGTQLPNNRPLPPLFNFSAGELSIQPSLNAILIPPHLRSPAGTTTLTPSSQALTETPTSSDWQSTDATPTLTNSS

## CCC1(c2cccc(-c3ccnc(C)n3)c2)C2=C(CC(C)(C)CC2=O)Nc2n[nH]cc21 (stereo not drawn) [Compound 948088]
[1]; [3]
  IC50: 0.1 to 1 µM
[2]; [4]
  IC50: 1 to 5 µM

## CC1(C)CC(=O)C2=C(C1)Nc1n[nH]cc1C2(C)c1cc(F)cc(F)c1 (stereo not drawn) [Compound 785735]
[1]; [5]
  IC50: 0.1 to 1 µM
[2]; [6]
  IC50: > 5 µM

## CCC1(c2ccccc2)C2=C(CCCC2=O)Nc2n[nH]cc21 (stereo not drawn) [Compound 789497]
[1]; [5]
  IC50: 1 to 5 µM
[2]; [6]
  IC50: > 5 µM

## CC1(C)CC(=O)C2=C(C1)Nc1n[nH]cc1[C@@]21CCOC1 [Compound 877314]
[1]; [7]
  IC50: 0.1 to 1 µM
[2]; [8]
  IC50: 1 to 5 µM

## CCC1(c2cccc(S(=O)(=O)CC3CC3)c2)C2=C(CC(C)(C)CC2=O)Nc2n[nH]cc21 (stereo not drawn) [Compound 917150]
[1]; [7]
  IC50: ≤ 0.1 µM
[1]; [9]
  IC50: ≤ 0.1 µM
[2]; [8]
  IC50: ≤ 0.1 µM
[2]; [10]
  IC50: 0.1 to 1 µM

## CCC1(c2cccc(Br)c2)C2=C(CC(C)(C)C(F)C2=O)Nc2n[nH]cc21 (stereo not drawn) [Compound 835314]
[1]; [5]
  IC50: ≤ 0.1 µM
[2]; [6]
  IC50: 0.1 to 1 µM

## C[C@H]1C[C@]2(CCO1)C1=C(CC(C)(C)CC1=O)Nc1n[nH]cc12 [Compound 924307]
[1]; [3]
  IC50: 0.1 to 1 µM
[2]; [4]
  IC50: 0.1 to 1 µM

## CC1(C)CC(=O)C2=C(C1)Nc1n[nH]cc1C21COC2(CN(C(=O)C(C)(F)F)C2)C1 (stereo not drawn) [Compound 947275]
[1]; [11]
  IC50: ≤ 0.1 µM
[1]; [9]
  IC50: 0.1 to 1 µM
[2]; [12]
  IC50: ≤ 0.1 µM
[2]; [10]
  IC50: 0.1 to 1 µM

## CC[C@@]1(c2ccc(C)cc2)C2=C(CC(C)(C)CC2=O)Nc2n[nH]cc21 [Compound 789457]
[1]; [5]
  IC50: 0.1 to 1 µM
[2]; [6]
  IC50: 1 to 5 µM

## CCC1(c2cccc(C(F)(F)F)c2)C2=C(Nc3n[nH]cc31)C(C)(C)N(C)C2=O (stereo not drawn) [Compound 913198]
[1]; [3]
  IC50: ≤ 0.1 µM
[2]; [4]
  IC50: 0.1 to 1 µM

## CCC1(c2cccc(N(C)c3ccccn3)c2)C2=C(CC(C)(C)CC2=O)Nc2n[nH]cc21 (stereo not drawn) [Compound 874294]
[1]; [5]
  IC50: ≤ 0.1 µM
[2]; [6]
  IC50: 0.1 to 1 µM

## CC[C@]1(c2cccc(N(C)c3ncccn3)c2)C2=C(CC(C)(C)NC2=O)Nc2n[nH]c(C(F)F)c21 [Compound 951736]
[1]; [7]
  IC50: ≤ 0.1 µM
[2]; [8]
  IC50: 0.1 to 1 µM

## CCC1(c2cccc(-c3cnnn3C(C)C)c2)C2=C(CC(C)(C)CC2=O)Nc2n[nH]cc21 (stereo not drawn) [Compound 947397]
[1]; [3]
  IC50: ≤ 0.1 µM
[2]; [4]
  IC50: ≤ 0.1 µM

## CCC1(c2cccc(-c3cnn(Cc4ccc(C(F)(F)F)cc4)c3)c2)C2=C(CC(C)(C)NC2=O)Nc2n[nH]cc21 (stereo not drawn) [Compound 951849]
[1]; [7]
  IC50: ≤ 0.1 µM
[2]; [8]
  IC50: 0.1 to 1 µM

## CC1(C)CC(=O)C2=C(C1)Nc1n[nH]cc1C21CN(S(=O)(=O)Cc2ccccc2)C1 [Compound 943543]
[1]; [3]
  IC50: ≤ 0.1 µM
[2]; [4]
  IC50: ≤ 0.1 µM

## CC1(C)CC(=O)C2=C(C1)Nc1n[nH]cc1[C@]21CCC[C@@H](C#N)C1 [Compound 946080]
[1]; [7]
  IC50: 1 to 5 µM
[2]; [8]
  IC50: 1 to 5 µM

## CCC1(c2cccc(C(F)(F)F)c2)C2=C(Nc3n[nH]cc31)c1ccccc1C2=O (stereo not drawn) [Compound 948205]
[1]; [7]
  IC50: ≤ 0.1 µM
[1]; [13]
  IC50: 0.1 to 1 µM
[2]; [8]
  IC50: ≤ 0.1 µM
[2]; [14]
  IC50: 0.1 to 1 µM

## CC1(C)CC(=O)C2=C(C1)Nc1n[nH]cc1C21COC2(CN(C(=O)C3(F)CCCC3)C2)C1 (stereo not drawn) [Compound 947277]
[1]; [11]
  IC50: ≤ 0.1 µM
[2]; [12]
  IC50: ≤ 0.1 µM

## CCC1(c2cccc(-c3ccnn3C)c2)C2=C(CC3(CCOC3)NC2=O)Nc2n[nH]cc21 (stereo not drawn) [Compound 948014]
[1]; [5]
  IC50: 0.1 to 1 µM
[2]; [6]
  IC50: > 5 µM

## CC1(C)CC(=O)C2=C(C1)Nc1n[nH]cc1[C@]21CCN(S(=O)(=O)c2cccc(F)c2)C1 [Compound 951861]
[1]; [11]
  IC50: ≤ 0.1 µM
[1]; [13]
  IC50: 0.1 to 1 µM
[2]; [12]
  IC50: ≤ 0.1 µM
[2]; [14]
  IC50: 0.1 to 1 µM

## CC1(C)CC(=O)C2=C(C1)Nc1n[nH]cc1C21CCN(S(=O)(=O)c2ccc(F)cn2)CC1 [Compound 947251]
[1]; [3]
  IC50: 0.1 to 1 µM
[2]; [4]
  IC50: 0.1 to 1 µM

## CC[C@@]1(c2ccccc2)C2=C(C[C@@]3(CCOC3)CC2=O)Nc2n[nH]cc21 [Compound 816884]
[1]; [5]
  IC50: 0.1 to 1 µM
[2]; [6]
  IC50: 1 to 5 µM

## CC[C@]1(c2cccc(C(F)(F)F)c2)C2=C(CCNC2=O)Nc2n[nH]cc21 [Compound 912668]
[1]; [11]
  IC50: > 5 µM
[2]; [12]
  IC50: > 5 µM

## CCC1(c2cccc(-c3ccncc3C)c2)C2=C(CC(C)(C)CC2=O)Nc2n[nH]cc21 (stereo not drawn) [Compound 913351]
[1]; [7]
  IC50: ≤ 0.1 µM
[2]; [8]
  IC50: ≤ 0.1 µM

## CC[C@]1(c2ccccc2)C2=C(CC3(CCCC3)CC2=O)Nc2n[nH]cc21 [Compound 789563]
[1]; [5]
  IC50: > 5 µM
[2]; [6]
  IC50: > 5 µM

## CCC1(c2cccc(-c3ccnc(C)c3C)c2)C2=C(CC(C)(C)NC2=O)Nc2n[nH]c(C(F)(F)F)c21 (stereo not drawn) [Compound 948185]
[1]; [5]
  IC50: ≤ 0.1 µM
[1]; [9]
  IC50: ≤ 0.1 µM
[2]; [6]
  IC50: ≤ 0.1 µM
[2]; [10]
  IC50: ≤ 0.1 µM

## CC[C@@]1(c2cccc(C(F)(F)F)c2)C2=C(C[C@H](C)NC2=O)Nc2n[nH]cc21 [Compound 912097]
[1]; [11]
  IC50: 0.1 to 1 µM
[2]; [12]
  IC50: > 5 µM

## CCC1(c2cccc(NS(C)(=O)=O)c2)C2=C(CC(C)(C)CC2=O)Nc2n[nH]cc21 (stereo not drawn) [Compound 927341]
[1]; [7]
  IC50: 1 to 5 µM
[2]; [8]
  IC50: 1 to 5 µM

## CC1(C)CC(=O)C2=C(C1)Nc1n[nH]cc1[C@@]21COC2(CN(C(=O)Cc3ccccc3)C2)C1 [Compound 948037]
[1]; [11]
  IC50: ≤ 0.1 µM
[1]; [9]
  IC50: ≤ 0.1 µM
[2]; [12]
  IC50: ≤ 0.1 µM
[2]; [10]
  IC50: ≤ 0.1 µM

## CC[C@@]1(c2cccc(C(F)(F)F)c2)C2=C(CCN(CC(F)(F)F)C2=O)Nc2n[nH]cc21 [Compound 912205]
[1]; [11]
  IC50: > 5 µM
[2]; [12]
  IC50: > 5 µM

## CC[C@]1(c2cccc(-c3c(C)nn(C)c3C)c2)C2=C(CC(C)(C)NC2=O)Nc2n[nH]cc21 [Compound 947408]
[1]; [5]
  IC50: ≤ 0.1 µM
[1]; [9]
  IC50: 0.1 to 1 µM
[2]; [6]
  IC50: ≤ 0.1 µM
[2]; [10]
  IC50: 1 to 5 µM

## CC[C@]1(c2ccccc2)C2=C(C[C@@](C)(C(F)(F)F)CC2=O)Nc2n[nH]cc21 [Compound 819570]
[1]; [5]
  IC50: > 5 µM
[2]; [6]
  IC50: > 5 µM

## CC[C@]1(c2cccc(C(F)(F)F)c2)C2=C(CCN(C(C)C)C2=O)Nc2n[nH]cc21 [Compound 857362]
[1]; [11]
  IC50: > 5 µM
[2]; [12]
  IC50: > 5 µM

## Cn1ccc(S(=O)(=O)N2CC[C@@]3(C2)C2=C(CC(C)(C)CC2=O)Nc2n[nH]cc23)n1 [Compound 945714]
[1]; [3]
  IC50: ≤ 0.1 µM
[2]; [4]
  IC50: ≤ 0.1 µM

## CC[C@]1(c2cccc(-c3ccncc3F)c2)C2=C(CC(C)(C)NC2=O)Nc2n[nH]c(C)c21 [Compound 947805]
[1]; [5]
  IC50: 0.1 to 1 µM
[2]; [6]
  IC50: 1 to 5 µM

## CC[C@]1(c2cccc(-c3cc(C)nc4c3cnn4C)c2)C2=C(CC(C)(C)NC2=O)Nc2n[nH]cc21 [Compound 952563]
[1]; [7]
  IC50: 1 to 5 µM
[2]; [8]
  IC50: > 5 µM

## CC1(C)CC(=O)C2=C(C1)Nc1n[nH]cc1C21CCN(S(=O)(=O)c2cccc3c2CCCC3)CC1 [Compound 947470]
[1]; [3]
  IC50: ≤ 0.1 µM
[2]; [4]
  IC50: ≤ 0.1 µM

## CC1(C)CC(=O)C2=C(C1)Nc1n[nH]cc1[C@]21C[C@@H](n2cccn2)C1 [Compound 884004]
[1]; [3]
  IC50: ≤ 0.1 µM
[2]; [4]
  IC50: ≤ 0.1 µM

## CCC1(c2ccccc2)C2=C(CS(=O)(=O)CC2=O)Nc2n[nH]cc21 (stereo not drawn) [Compound 811512]
[1]; [11]
  IC50: > 5 µM
[2]; [12]
  IC50: > 5 µM

## CCC1(c2cccc(-c3cncn3C)c2)C2=C(CC(C)(C)NC2=O)Nc2n[nH]c(C(F)(F)F)c21 (stereo not drawn) [Compound 949003]
[1]; [5]
  IC50: 0.1 to 1 µM
[2]; [6]
  IC50: 0.1 to 1 µM

## CC[C@]1(c2cccc(-c3cc(C)nn3C)c2)C2=C(CC(C)(C)CC2=O)Nc2n[nH]c(C(F)(F)F)c21 [Compound 947383]
[1]; [3]
  IC50: 1 to 5 µM
[2]; [4]
  IC50: > 5 µM

— patent US20250313563A1, “GLYCOGEN SYNTHASE KINASE 3 INHIBITORS AND USES THEREOF” (The Broad Institute, Inc., priority 2022, published 2025)
